Values quoted from earlier work as cited in patent publication US20100197666A1, “(THIO) -CARBAMOYL-CYCLOHEXANE DERIVATIVES AND METHOD FOR TREATING SCHIZOPHRENIA” (priority 2007, published 2010).

Legend:
Details in all cases: background statement; cited from earlier work
[1] = test system: adrenergic receptor sites
histamine H1 = histamine H1 (Homo sapiens, UniProt P35367)
5-HT2C = 5-HT2C (Homo sapiens, UniProt P28335)
Sequence of 5-HT2C (P28335 33-458, species assumed): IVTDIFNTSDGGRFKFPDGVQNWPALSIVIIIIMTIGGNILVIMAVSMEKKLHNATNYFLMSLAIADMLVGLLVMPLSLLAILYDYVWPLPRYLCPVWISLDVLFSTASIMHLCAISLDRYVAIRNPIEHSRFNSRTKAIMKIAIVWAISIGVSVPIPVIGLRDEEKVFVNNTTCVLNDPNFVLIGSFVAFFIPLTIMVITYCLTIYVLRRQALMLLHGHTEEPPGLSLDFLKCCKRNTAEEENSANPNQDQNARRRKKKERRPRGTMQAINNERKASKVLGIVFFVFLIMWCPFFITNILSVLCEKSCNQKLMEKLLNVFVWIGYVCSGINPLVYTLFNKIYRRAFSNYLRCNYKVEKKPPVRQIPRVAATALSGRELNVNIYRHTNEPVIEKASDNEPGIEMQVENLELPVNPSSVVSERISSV

Sequence of histamine H1 (P35367 whole entry): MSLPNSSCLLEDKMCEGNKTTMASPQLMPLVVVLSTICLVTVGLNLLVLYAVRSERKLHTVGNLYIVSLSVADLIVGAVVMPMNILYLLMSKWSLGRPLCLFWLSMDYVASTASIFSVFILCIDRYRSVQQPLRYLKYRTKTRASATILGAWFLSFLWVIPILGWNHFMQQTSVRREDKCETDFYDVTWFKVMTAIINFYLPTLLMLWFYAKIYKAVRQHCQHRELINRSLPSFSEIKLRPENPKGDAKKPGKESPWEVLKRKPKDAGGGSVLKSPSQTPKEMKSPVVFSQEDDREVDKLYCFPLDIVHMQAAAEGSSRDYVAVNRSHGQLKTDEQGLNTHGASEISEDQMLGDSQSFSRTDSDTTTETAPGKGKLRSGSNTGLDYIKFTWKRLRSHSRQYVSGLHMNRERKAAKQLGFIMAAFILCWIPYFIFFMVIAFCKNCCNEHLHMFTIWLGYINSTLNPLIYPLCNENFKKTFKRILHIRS

CN(C)C(=O)NC1CCC(CCN2CCN(c3cccc(Cl)c3Cl)CC2)CC1.Cl (stereo not drawn) [trans-4-{2-[4-(2,3-dichlorophenyl)-piperazin-1-yl]-ethyl}-N,N-dimethylcarbamoyl-cyclohexylamine hydrochloride]
low potency: potency at adrenergic receptor sites [1] | potency at histamine H1 receptor site (histamine H1) | potency at 5-HT2C receptor site (5-HT2C)
